Measurements taken from PubChem BioAssay AID1845200 (Molecular Pharmacology Branch, DTP, NCI, 2023).

System: ASPS-1 complex tumor spheroids, viability
Assay: Anticancer human tumor ASPS-1 cell line growth inhibition;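 also: spheroids exposed to agents for 7 days after 3 days of growth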;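 as to viability, T/C: 100% = DMSO vehicle treated spheroids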
Details: for IC50: curve of first compound; for viability, T/C: stronger effect = lower value
How it was run: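 Single agents and combinations were tested on spheroids built from tumor cells plus HUVEC and hMSC, at half-log dilutions starting at or near clinical Cmax, else 10 microM; final DMSO 0.25% (v/v).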

[1] = second compound 0.003 µM, first compound 0.0316 µM
[2] = second compound 0.003 µM, first compound 0.1 µM
[3] = second compound 0.003 µM, first compound 0.316 µM
[4] = second compound 0.003 µM, first compound 1 µM
[5] = second compound 0.003 µM, first compound 3.16 µM
[6] = second compound 0.003 µM, first compound 10 µM
[7] = second compound 0.00949 µM, first compound 0.0316 µM
[8] = second compound 0.00949 µM, first compound 0.1 µM
[9] = second compound 0.00949 µM, first compound 0.316 µM
[10] = second compound 0.00949 µM, first compound 1 µM
[11] = second compound 0.00949 µM, first compound 3.16 µM
[12] = second compound 0.00949 µM, first compound 10 µM
[13] = second compound 0.03 µM, first compound 0.0316 µM
[14] = second compound 0.03 µM, first compound 0.1 µM
[15] = second compound 0.03 µM, first compound 0.316 µM
[16] = second compound 0.03 µM, first compound 1 µM
[17] = second compound 0.03 µM, first compound 3.16 µM
[18] = second compound 0.03 µM, first compound 10 µM
[19] = second compound 0.0949 µM, first compound 0.0316 µM
[20] = second compound 0.0949 µM, first compound 0.1 µM
[21] = second compound 0.0949 µM, first compound 0.316 µM
[22] = second compound 0.0949 µM, first compound 1 µM
[23] = second compound 0.0949 µM, first compound 3.16 µM
[24] = second compound 0.0949 µM, first compound 10 µM
[25] = second compound 0.3 µM, first compound 0.0316 µM
[26] = second compound 0.3 µM, first compound 0.1 µM
[27] = second compound 0.3 µM, first compound 0.316 µM
[28] = second compound 0.3 µM, first compound 1 µM
[29] = second compound 0.3 µM, first compound 3.16 µM
[30] = second compound 0.3 µM, first compound 10 µM

| Compound | IC50 (second compound 0.003 µM) [µM] | IC50 (second compound 0.00949 µM) [µM] | IC50 (second compound 0.03 µM) [µM] | IC50 (second compound 0.0949 µM) [µM] | IC50 (second compound 0.3 µM) [µM] | viability, T/C [1] [%] | viability, T/C [2] [%] | viability, T/C [3] [%] | viability, T/C [4] [%] | viability, T/C [5] [%] | viability, T/C [6] [%] | viability, T/C [7] [%] | viability, T/C [8] [%] | viability, T/C [9] [%] | viability, T/C [10] [%] | viability, T/C [11] [%] | viability, T/C [12] [%] | viability, T/C [13] [%] | viability, T/C [14] [%] | viability, T/C [15] [%] | further results |
| --- | --- | --- | --- | --- | --- | --- | --- | --- | --- | --- | --- | --- | --- | --- | --- | --- | --- | --- | --- | --- | --- |
| CC(C)n1c(=O)n(C)c2cnc3cc(F)c(-c4ccc(OCCCN5CCCCC5)nc4)cc3c21 + CC[C@@]1(O)C(=O)OCc2c1cc1n(c2=O)Cc2cc3c(CN(C)C)c(O)ccc3nc2-1 | 6.68 | 5.2 | 0.184 | 0.161 | 0.188 | 99.3 | 99.6 | 108 | 98 | 82.9 | 32.4 | 82.9 | 69.2 | 71 | 65.6 | 67 | 30.6 | 61.1 | 53 | 48 | viability, T/C [16]: 31.3%; viability, T/C [17]: 33.2%; viability, T/C [18]: 27.1%; viability, T/C [19]: 64.3%; viability, T/C [20]: 54.7%; viability, T/C [21]: 41.8%; viability, T/C [22]: 21.9%; viability, T/C [23]: 22.4%; viability, T/C [24]: 26.1%; viability, T/C [25]: 62.9%; viability, T/C [26]: 60.6%; viability, T/C [27]: 40.9%; viability, T/C [28]: 22%; viability, T/C [29]: 20.9%; viability, T/C [30]: 24.2% |
| COc1ccc([C@@H](O)c2cc(-c3ncnc4cc(N5CCOCC5)ccc34)c(F)cc2Cl)nn1 + CC[C@@]1(O)C(=O)OCc2c1cc1n(c2=O)Cc2cc3c(CN(C)C)c(O)ccc3nc2-1 | 8.87 | 6.69 | 3.02 | 0.33 | 0.214 | 110 | 106 | 101 | 98.1 | 80.3 | 46.1 | 104 | 104 | 101 | 90.2 | 66.6 | 41.1 | 82 | 87.9 | 82.8 | viability, T/C [16]: 73.8%; viability, T/C [17]: 49.1%; viability, T/C [18]: 31.9%; viability, T/C [19]: 56.1%; viability, T/C [20]: 54.7%; viability, T/C [21]: 50.6%; viability, T/C [22]: 31.4%; viability, T/C [23]: 22.7%; viability, T/C [24]: 26.1%; viability, T/C [25]: 62.5%; viability, T/C [26]: 58.4%; viability, T/C [27]: 45.7%; viability, T/C [28]: 32.4%; viability, T/C [29]: 23.9%; viability, T/C [30]: 16.4% |
